# Measured values as given in patent publication US20220169632A1, “METHODS AND MATERIALS FOR INCREASING OR MAINTAINING NICOTINAMIDE MONONUCLEOTIDE ADENYLYL TRANSFERASE-2 (NMNAT2) POLYPEPTIDE LEVELS” (University of Pittsburgh - Of the Commonwealth System of …, priority 2019, published 2022).
# System: NMNAT2
# Assay: NMNAT2-Hibit nano-luciferase activity in transfected U87MG cells, 25 μM, 24 hours
# Format: cell-based
# Conditions: NMNAT2-Hibit luc plasmid, 24 hours (Table B)
# Protocol: Selected compounds were tested in vitro. Briefly, U87MG cells were transfected with NMNAT2-Hibit luc plasmid. Cells were treated with a test compound at 25 μM for 24 hours. Cells were then collected and assayed for nano-luciferase activity.
row,Structure (SMILES),B: compound efficacy (IC50) for NMNAT2 activation; increase in NMNAT2 luciferase activity
1,COc1cccc(CNC(=O)NCc2noc3ccc(C)cc23)c1 [Compound 181076],+ (“+” <20% increase in NMNAT2 luciferase activity.)
2,CCCCN(C)CCNC(=O)NCc1noc2ccc(C)cc12 [Compound 181070],+ (“+” <20% increase in NMNAT2 luciferase activity.)
3,Cc1ccc2onc(CNC(=O)N(C)c3ccccc3Cl)c2c1 [Compound 181057],+ (“+” <20% increase in NMNAT2 luciferase activity.)
4,O=C(NCc1noc2ccccc12)Nc1cccc(Cl)c1 [Compound 181001],+ (“+” <20% increase in NMNAT2 luciferase activity.)
5,CN(C(=O)NCc1noc2ccccc12)c1ccccc1Cl [Compound 181017],+ (“+” <20% increase in NMNAT2 luciferase activity.)
6,CCOc1ccccc1CNC(=O)NCc1noc2ccccc12 [Compound 181020],+ (“+” <20% increase in NMNAT2 luciferase activity.)
7,COc1ccc(CNC(=O)NCc2noc3ccccc23)cc1 [Compound 181019],+ (“+” <20% increase in NMNAT2 luciferase activity.)
8,Cc1ccc2onc(CNC(=O)Nc3cccc(C(F)(F)F)c3)c2c1 [Compound 181037],+ (“+” <20% increase in NMNAT2 luciferase activity.)
9,Cc1ccc(NC(=O)NCc2noc3ccccc23)cc1F [Compound 181004],+ (“+” <20% increase in NMNAT2 luciferase activity.)
10,Cc1ccc2onc(CNC(=O)Nc3ccccc3F)c2c1 [Compound 181043],+ (“+” <20% increase in NMNAT2 luciferase activity.)
11,Cc1ccc2onc(CNC(=O)Nc3ccc(F)c(Cl)c3)c2c1 [Compound 181040],+ (“+” <20% increase in NMNAT2 luciferase activity.)
12,Cc1ccc2onc(CNC(=O)NCc3ccccc3)c2c1 [Compound 181092],+ (“+” <20% increase in NMNAT2 luciferase activity.)
13,Cc1ccc(C)c(N(C)C(=O)NCc2noc3ccccc23)c1 [Compound 181016],+ (“+” <20% increase in NMNAT2 luciferase activity.)
14,O=C(NCc1noc2ccccc12)Nc1ccccc1Cl [Compound 181027],+ (“+” <20% increase in NMNAT2 luciferase activity.)
15,CCN(C(=O)NCc1noc2ccc(C)cc12)c1cccc(Cl)c1 [Compound 181054],+ (“+” <20% increase in NMNAT2 luciferase activity.)
16,Cc1ccc2onc(CNC(=O)Nc3cccc(C#N)c3)c2c1 [Compound 181066],+ (“+” <20% increase in NMNAT2 luciferase activity.)
17,Cc1ccc2onc(CNC(=O)Nc3ccc(Cl)cc3)c2c1 [Compound 181080],+ (“+” <20% increase in NMNAT2 luciferase activity.)
18,Cc1ccc(NC(=O)NCc2noc3ccc(C)cc23)c(Br)c1 [Compound 181038],+ (“+” <20% increase in NMNAT2 luciferase activity.)

row,Structure (SMILES),B: compound efficacy (IC50) for NMNAT2 activation; increase in NMNAT2 luciferase activity
1,Cc1ccc2onc(CNC(=O)NC3CCN(Cc4ccccc4)CC3)c2c1 [Compound 181065],+ (“+” <20% increase in NMNAT2 luciferase activity.)
2,O=C(NCc1noc2ccccc12)Nc1ccc(F)c(Cl)c1 [Compound 181005],+ (“+” <20% increase in NMNAT2 luciferase activity.)
3,Cc1ccc2onc(CNC(=O)N(C)c3ccc(C)c(C)c3)c2c1 [Compound 181056],+ (“+” <20% increase in NMNAT2 luciferase activity.)
4,Cc1cccc(N(C)C(=O)NCc2noc3ccccc23)c1 [Compound 181018],+ (“+” <20% increase in NMNAT2 luciferase activity.)
5,O=C(NCc1noc2ccccc12)Nc1cccc(C(F)(F)F)c1 [Compound 181002],+ (“+” <20% increase in NMNAT2 luciferase activity.)
6,CCc1ccccc1NC(=O)NCc1noc2ccc(C)cc12 [Compound 181075],+ (“+” <20% increase in NMNAT2 luciferase activity.)
7,CC(C)c1ccc(NC(=O)NCc2noc3ccccc23)cc1 [Compound 181010],+ (“+” <20% increase in NMNAT2 luciferase activity.)
8,COCCCNC(=O)NCc1noc2ccc(C)cc12 [Compound 181048],++ (“++” >20% and <100% increase in NMNAT2 luciferase activity.)
9,Cc1ccc(Cl)cc1N(C)C(=O)NCc1noc2ccccc12 [Compound 181011],+ (“+” <20% increase in NMNAT2 luciferase activity.)
10,Cc1ccc2onc(CNC(=O)N3CCN(c4cccc(Cl)c4)CC3)c2c1 [Compound 181045],+ (“+” <20% increase in NMNAT2 luciferase activity.)
11,Cc1ccc2onc(CNC(=O)Nc3ccccc3C)c2c1 [Compound 181074],+ (“+” <20% increase in NMNAT2 luciferase activity.)
12,CCn1c2ccccc2c2cc(NC(=O)NCc3noc4ccc(C)cc34)ccc21 [Compound 181064],+ (“+” <20% increase in NMNAT2 luciferase activity.)
13,COc1ccc(CNC(=O)NCc2noc3ccc(C)cc23)cc1 [Compound 181060],++ (“++” >20% and <100% increase in NMNAT2 luciferase activity.)
14,Cc1ccc2onc(CNC(=O)NCCN(C)Cc3ccccc3)c2c1 [Compound 181073],+ (“+” <20% increase in NMNAT2 luciferase activity.)
15,Cc1ccc(NC(=O)NCc2noc3ccccc23)c(Cl)c1 [Compound 181021],+ (“+” <20% increase in NMNAT2 luciferase activity.)
16,Cc1ccc(N(C)C(=O)NCc2noc3ccccc23)cc1C [Compound 181014],+ (“+” <20% increase in NMNAT2 luciferase activity.)
17,Cc1ccc(NC(=O)NCc2noc3ccccc23)c(Br)c1 [Compound 181003],+ (“+” <20% increase in NMNAT2 luciferase activity.)
18,Cc1ccc(NC(=O)NCc2noc3ccc(C)cc23)c(Cl)c1 [Compound 181062],+ (“+” <20% increase in NMNAT2 luciferase activity.)

# Same assay, conditions: NMNAT2-Hibit luc plasmid, 24 hours (Table C)
row,Structure (SMILES),C: Compound efficacy for NMNAT2 activation; increase in NMNAT2 luciferase activity
1,Cc1cc(C)n(CC(=O)NCc2ccc(Cl)cc2)c(=O)c1C#N [Compound 181122],+ (“+” <20% increase in NMNAT2 luciferase activity.)
2,COc1ccc(CNC(=O)Cn2c(C)cc(C)c(C#N)c2=O)cc1OC [Compound 181127],+ (“+” <20% increase in NMNAT2 luciferase activity.)
3,Cc1c(C=O)c2ccccc2n1CC(=O)NCc1ccco1 [Compound 181110],+ (“+” <20% increase in NMNAT2 luciferase activity.)
4,Cn1c(=O)c(=O)n(CC(=O)NCc2ccco2)c2ccccc21 [Compound 181136],+ (“+” <20% increase in NMNAT2 luciferase activity.)
5,CCC(=O)c1cn(CC(=O)NCc2ccco2)c2ccccc12 [Compound 181108],+ (“+” <20% increase in NMNAT2 luciferase activity.)
6,CCn1ccc2cc(CCC(=O)NCc3ccco3)ccc21 [Compound 181141],++ (“++” >20% and <100% increase in NMNAT2 luciferase activity.)
7,O=C(Cn1ccc2ccc(Br)cc21)NCCCc1ccco1 [Compound 181153],++ (“++” >20% and <100% increase in NMNAT2 luciferase activity.)
8,CC(CCc1ccco1)NC(=O)Cn1ccc2ccc(Br)cc21 (stereo not drawn) [Compound 181154],++ (“++” >20% and <100% increase in NMNAT2 luciferase activity.)
9,Cc1cc(C)n(CC(=O)NCc2ccccc2Cl)c(=O)c1C#N [Compound 181130],+ (“+” <20% increase in NMNAT2 luciferase activity.)
10,COc1cccc2ccn(CC(=O)NCc3ccco3)c12 [Compound 181146],+ (“+” <20% increase in NMNAT2 luciferase activity.)
11,Cc1cc(C)n(CC(=O)NCc2ccccc2)c(=O)c1C#N [Compound 181120],+ (“+” <20% increase in NMNAT2 luciferase activity.)
12,Cc1ccc(CNC(=O)Cn2c(C)cc(C)c(C#N)c2=O)cc1 [Compound 181121],+ (“+” <20% increase in NMNAT2 luciferase activity.)
13,CCc1cccc2c(C(=O)C(F)(F)F)cn(CC(=O)NCc3ccco3)c12 [Compound 181102],+ (“+” <20% increase in NMNAT2 luciferase activity.)
14,COc1cccc(CNC(=O)Cn2c(C)cc(C)c(C#N)c2=O)c1 [Compound 181125],+ (“+” <20% increase in NMNAT2 luciferase activity.)
15,Cc1cc2ccccc2n1CC(=O)NCc1ccco1 [Compound 181144],+ (“+” <20% increase in NMNAT2 luciferase activity.)
16,O=C(Cn1ccc2cc(Br)ccc21)NCc1ccco1 [Compound 181149],++ (“++” >20% and <100% increase in NMNAT2 luciferase activity.)
17,Cc1ccc(CNC(=O)c2ccc(NC(=O)Cn3c(C)cc(C)c(C#N)c3=O)cc2)o1 [Compound 181134],+ (“+” <20% increase in NMNAT2 luciferase activity.)
18,Cc1ccc(Cn2cc(CCC(=O)NCc3ccco3)c3ccccc32)cc1 [Compound 181116],++ (“++” >20% and <100% increase in NMNAT2 luciferase activity.)
